In PMC8249783, “A novel multikinase inhibitor SKLB‐YTH‐60 ameliorates inflammation and fibrosis in bleomycin‐induced lung fibrosis mouse models” (Cell Proliferation, 2021):

Key:
[1] = test system: BLM‐induced pulmonary fibrosis; assay: BLM‐induced pulmonary fibrosis mouse model, therapeutic treatment (day 7 to 14); assay type: in vivo, C57BL/6 mice; settings: mice, 30 mg·kg^−1 i.p. from day 7 to 14
Protocol: Male C57BL/6 mice (8‐10 weeks old) were purchased from HFK Bioscience Co. Ltd. All animal experiments were permitted by the Institutional Animal Care and Treatment Committee of Sichuan University in China (New Permit Number: 20190524003). Lung fibrosis was induced using BLM treatment (2 mg·kg^−1). All C57BL/6 mice were divided into five groups (n = 10): a BLM + Nintedanib group (Nintedanib, 30 mg·kg^−1), a BLM + YTH‐60 group (YTH‐60, 15 mg·kg^−1 and 30 mg·kg^−1), a control group (Sham), and a bleomycin group (Vehicle). At the beginning, the mice were anaesthetized using 10% chloral hydrate, dissolved BLM with saline and administered intratracheally. To evaluate the preventive effect, the next day after BLM challenge, YTH‐60 and Nintedanib were administered intraperitoneally daily for 13 days (fibroproliferation) to the mice. All mice were sacrificed 24 hours after the last drug injection, the lungs and other organs were taken for the subsequent analysis. […]
The left lung was detached and immediately fixed in 4% paraformaldehyde for 72 hours and then embed with paraffin wax. […] Ashcroft scoring was used to examine the severity of pulmonary fibrosis. ^20 The image analysis‐based system to quantify collagen deposition was described previously. ^21

[2] = test system: A549 cells; assay: Cell viability assay (MTT); assay type: cell-based, human
Protocol: The cell viability of YTH‐60 and Nintedanib treatment was performed by MTT and CCK8 assay. Briefly, the exponentially growing cells were seeded in 96‐well (2‐5 × 10^3 cells·well^−1) and cultured for 24 hours. The cells were treated with different concentrations of YTH‐60 (0, 0.625, 1.25, 2.5, 5, 10 µmol·L^−1), after treatment for 24, 48 and 72 hours, respectively, a volume of 20 μL of 5 mg·mL^−1 MTT solution or 10 μL CCK‐8 solution was added to each well and incubation for 2‐4 hours at 37°C. Finally, the 96‐well plates were read on Multiskan FC microplate spectrophotometer at 570 or 450 nm wavelength.

[3] = target: FGFR2 (h) (Homo sapiens, UniProt P21802); assay: Kinase profile assay and IC50 test (Eurofins); assay type: biochemical; settings: double testing
Protocol: (§1) The in vitro kinase enzymatic inhibition assays were carried out by the Kinase Profiling Services provided by Eurofins (UK). The detailed protocol descriptions can be provided by the website (https://www.eurofinsdiscoveryservices.com).

[4] = target: Flt1 (h)/VEGFR1 (Homo sapiens, UniProt P17948); assay: Kinase profile assay and IC50 test (Eurofins); assay type: biochemical; settings: double testing
Protocol: as §1

[5] = target: Flt4 (h)/VEGFR3 (Homo sapiens, UniProt P35916); assay: Kinase profile assay and IC50 test (Eurofins); assay type: biochemical; settings: double testing
Protocol: as §1

[6] = target: PDGFRα (h) (Homo sapiens, UniProt P16234); assay: Kinase profile assay and IC50 test (Eurofins); assay type: biochemical
Protocol: as §1

[7] = target: Flt3 (h) (Homo sapiens, UniProt P36888); assay: Kinase profile assay and IC50 test (Eurofins); assay type: biochemical; settings: double testing
Protocol: as §1

[8] = target: KDR (h)/VEGFR2 (Homo sapiens, UniProt P35968); assay: Kinase profile assay and IC50 test (Eurofins); assay type: biochemical; settings: double testing
Protocol: as §1

[9] = target: PDGFRβ (h) (Homo sapiens, UniProt P09619); assay: Kinase profile assay and IC50 test (Eurofins); assay type: biochemical
Protocol: as §1

[10] = target: T1, Src (1‐530) (h) (Homo sapiens, UniProt P12931); assay: Kinase profile assay and IC50 test (Eurofins); assay type: biochemical; settings: double testing
T1 construct: Src (1‐530) (h)
Protocol: as §1

[11] = target: Abl (h) (Homo sapiens, UniProt P00519); assay: Kinase profile assay and IC50 test (Eurofins); assay type: biochemical; settings: double testing
Protocol: as §1

[12] = target: FGFR1 (h) (Homo sapiens, UniProt P11362); assay: Kinase profile assay and IC50 test (Eurofins); assay type: biochemical; settings: double testing
Protocol: as §1

[13] = test system: phosphorylation of FGFR1; assay: Western blot of FGFR signalling in fibroblasts; assay type: cell-based; settings: 10 μmol·L^−1
Protocol: Samples of cells and mouse lung tissues were lysed in RIPA buffer with a protease and phosphatase inhibitors (Selleckchem). The protein concentrations in the cell lysate were measured by the Lowry method. Approximately 50 μg of total protein was separated by SDS‐PAGE and then transferred to polyvinylidene fluoride (PVDF) membranes (Amersham Bioscience). After the membranes incubation with the specific primary and secondary antibodies, the reactive bands were detected with enhanced chemiluminescent substrate to horseradish peroxidase.

Chain of PDGFRα (h) (P16234 24-1089): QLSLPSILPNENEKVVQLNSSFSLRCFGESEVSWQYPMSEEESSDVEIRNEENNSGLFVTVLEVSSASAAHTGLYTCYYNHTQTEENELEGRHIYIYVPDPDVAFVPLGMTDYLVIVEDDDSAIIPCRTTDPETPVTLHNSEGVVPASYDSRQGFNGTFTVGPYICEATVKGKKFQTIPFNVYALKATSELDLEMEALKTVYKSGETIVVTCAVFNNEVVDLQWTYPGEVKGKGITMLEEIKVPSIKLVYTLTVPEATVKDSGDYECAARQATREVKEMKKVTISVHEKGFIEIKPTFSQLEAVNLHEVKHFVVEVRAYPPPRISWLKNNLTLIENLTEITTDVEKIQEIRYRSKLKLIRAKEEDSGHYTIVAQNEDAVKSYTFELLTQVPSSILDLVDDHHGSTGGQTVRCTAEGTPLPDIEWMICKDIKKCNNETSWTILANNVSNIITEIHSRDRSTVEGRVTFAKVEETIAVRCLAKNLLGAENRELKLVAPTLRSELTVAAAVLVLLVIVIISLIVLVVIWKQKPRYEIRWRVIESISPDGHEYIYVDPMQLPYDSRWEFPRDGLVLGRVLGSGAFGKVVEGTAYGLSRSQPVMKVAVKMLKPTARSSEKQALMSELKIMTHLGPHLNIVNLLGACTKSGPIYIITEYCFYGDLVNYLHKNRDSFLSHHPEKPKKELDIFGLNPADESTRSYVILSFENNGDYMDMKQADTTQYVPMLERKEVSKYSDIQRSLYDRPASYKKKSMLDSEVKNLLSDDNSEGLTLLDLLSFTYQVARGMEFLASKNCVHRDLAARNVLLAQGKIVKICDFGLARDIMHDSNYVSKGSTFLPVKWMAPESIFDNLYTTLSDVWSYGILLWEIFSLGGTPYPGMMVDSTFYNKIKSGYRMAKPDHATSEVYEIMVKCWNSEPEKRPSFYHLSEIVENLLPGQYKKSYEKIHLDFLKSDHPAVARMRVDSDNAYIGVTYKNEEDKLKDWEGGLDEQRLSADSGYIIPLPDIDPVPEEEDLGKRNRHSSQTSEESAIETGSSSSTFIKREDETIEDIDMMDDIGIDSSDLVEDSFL
Chain of PDGFRβ (h) (P09619 33-1106): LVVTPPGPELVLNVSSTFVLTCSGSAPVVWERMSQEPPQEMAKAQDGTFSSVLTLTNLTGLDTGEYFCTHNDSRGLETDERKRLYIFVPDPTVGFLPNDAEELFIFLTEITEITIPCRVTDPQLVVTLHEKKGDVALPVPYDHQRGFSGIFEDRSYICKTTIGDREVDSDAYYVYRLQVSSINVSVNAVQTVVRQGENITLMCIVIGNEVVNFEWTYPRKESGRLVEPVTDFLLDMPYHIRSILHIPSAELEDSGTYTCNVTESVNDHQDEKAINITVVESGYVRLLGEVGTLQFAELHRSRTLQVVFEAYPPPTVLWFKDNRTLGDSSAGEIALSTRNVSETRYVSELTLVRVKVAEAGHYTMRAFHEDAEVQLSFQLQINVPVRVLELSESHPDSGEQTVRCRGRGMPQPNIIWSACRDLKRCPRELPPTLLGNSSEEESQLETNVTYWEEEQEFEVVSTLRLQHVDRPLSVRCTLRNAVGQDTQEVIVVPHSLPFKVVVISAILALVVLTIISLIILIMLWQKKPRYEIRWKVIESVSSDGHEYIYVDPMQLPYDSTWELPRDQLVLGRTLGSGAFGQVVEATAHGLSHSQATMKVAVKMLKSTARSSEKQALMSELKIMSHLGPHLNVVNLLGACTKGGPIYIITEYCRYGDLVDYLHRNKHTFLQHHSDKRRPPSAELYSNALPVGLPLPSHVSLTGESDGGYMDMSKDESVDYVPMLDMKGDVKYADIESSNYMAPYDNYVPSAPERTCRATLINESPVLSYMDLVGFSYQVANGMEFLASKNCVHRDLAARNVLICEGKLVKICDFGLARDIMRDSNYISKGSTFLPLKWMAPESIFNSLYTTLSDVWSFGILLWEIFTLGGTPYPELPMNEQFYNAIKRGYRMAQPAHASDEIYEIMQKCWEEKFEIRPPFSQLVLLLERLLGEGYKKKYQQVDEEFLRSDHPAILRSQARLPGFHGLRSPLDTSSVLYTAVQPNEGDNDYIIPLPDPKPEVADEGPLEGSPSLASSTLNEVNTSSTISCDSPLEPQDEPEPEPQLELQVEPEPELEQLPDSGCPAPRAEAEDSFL
Chain of FGFR1 (h) (P11362 22-822): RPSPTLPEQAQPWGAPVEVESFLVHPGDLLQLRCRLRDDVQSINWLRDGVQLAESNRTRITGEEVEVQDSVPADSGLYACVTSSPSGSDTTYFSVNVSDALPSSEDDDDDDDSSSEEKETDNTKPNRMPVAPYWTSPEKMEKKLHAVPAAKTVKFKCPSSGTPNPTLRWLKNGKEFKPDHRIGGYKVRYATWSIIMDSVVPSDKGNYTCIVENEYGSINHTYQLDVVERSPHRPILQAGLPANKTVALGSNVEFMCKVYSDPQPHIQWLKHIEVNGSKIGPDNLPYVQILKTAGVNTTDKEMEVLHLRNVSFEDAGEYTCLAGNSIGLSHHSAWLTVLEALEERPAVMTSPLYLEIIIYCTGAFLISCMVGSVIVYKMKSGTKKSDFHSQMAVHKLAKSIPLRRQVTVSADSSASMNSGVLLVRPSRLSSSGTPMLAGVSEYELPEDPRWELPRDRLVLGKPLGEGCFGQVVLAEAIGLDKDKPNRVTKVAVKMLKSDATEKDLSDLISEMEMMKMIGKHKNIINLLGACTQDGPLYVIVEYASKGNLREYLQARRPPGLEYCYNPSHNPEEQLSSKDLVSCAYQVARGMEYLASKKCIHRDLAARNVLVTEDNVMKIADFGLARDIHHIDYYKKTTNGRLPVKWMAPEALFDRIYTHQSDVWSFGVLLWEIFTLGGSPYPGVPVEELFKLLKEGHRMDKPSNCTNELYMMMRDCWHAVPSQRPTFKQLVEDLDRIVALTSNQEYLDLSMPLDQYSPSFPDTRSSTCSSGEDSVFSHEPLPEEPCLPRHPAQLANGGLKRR
Chain of Flt4 (h)/VEGFR3 (P35916 25-1363): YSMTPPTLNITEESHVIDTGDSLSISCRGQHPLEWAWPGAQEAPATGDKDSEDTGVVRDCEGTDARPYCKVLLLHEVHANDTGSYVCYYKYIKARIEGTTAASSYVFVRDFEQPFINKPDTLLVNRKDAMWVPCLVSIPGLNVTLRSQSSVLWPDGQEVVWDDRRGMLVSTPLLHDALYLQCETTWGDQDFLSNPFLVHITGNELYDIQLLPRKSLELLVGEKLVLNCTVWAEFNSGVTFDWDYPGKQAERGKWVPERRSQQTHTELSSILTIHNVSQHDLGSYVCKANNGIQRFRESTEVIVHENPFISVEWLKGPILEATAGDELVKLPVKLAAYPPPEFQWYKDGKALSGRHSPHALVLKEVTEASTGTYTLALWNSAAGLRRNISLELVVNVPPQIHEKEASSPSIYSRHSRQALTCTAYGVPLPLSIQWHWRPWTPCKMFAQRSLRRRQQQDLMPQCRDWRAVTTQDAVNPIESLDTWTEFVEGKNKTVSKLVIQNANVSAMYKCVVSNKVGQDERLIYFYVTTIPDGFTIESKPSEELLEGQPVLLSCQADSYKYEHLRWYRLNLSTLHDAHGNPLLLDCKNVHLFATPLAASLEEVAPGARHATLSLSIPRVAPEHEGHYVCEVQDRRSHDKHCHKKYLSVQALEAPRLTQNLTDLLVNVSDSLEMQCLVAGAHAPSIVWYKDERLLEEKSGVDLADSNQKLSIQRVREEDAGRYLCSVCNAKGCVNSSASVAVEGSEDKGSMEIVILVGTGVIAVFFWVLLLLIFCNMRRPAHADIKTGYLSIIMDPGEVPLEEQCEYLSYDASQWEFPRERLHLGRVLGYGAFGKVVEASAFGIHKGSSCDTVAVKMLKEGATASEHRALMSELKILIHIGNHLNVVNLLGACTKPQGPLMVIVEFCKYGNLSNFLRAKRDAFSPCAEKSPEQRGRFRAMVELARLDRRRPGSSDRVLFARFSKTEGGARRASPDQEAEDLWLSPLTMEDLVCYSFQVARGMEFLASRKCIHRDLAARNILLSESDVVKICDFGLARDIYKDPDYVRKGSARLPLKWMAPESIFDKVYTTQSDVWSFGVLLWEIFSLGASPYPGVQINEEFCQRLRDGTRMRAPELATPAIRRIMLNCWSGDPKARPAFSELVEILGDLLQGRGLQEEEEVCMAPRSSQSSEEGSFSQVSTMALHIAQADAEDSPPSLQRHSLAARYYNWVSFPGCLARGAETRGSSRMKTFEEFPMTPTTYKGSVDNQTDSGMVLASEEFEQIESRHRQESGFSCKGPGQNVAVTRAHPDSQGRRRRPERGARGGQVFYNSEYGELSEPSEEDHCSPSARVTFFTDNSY
Chain of FGFR2 (h) (P21802 22-821): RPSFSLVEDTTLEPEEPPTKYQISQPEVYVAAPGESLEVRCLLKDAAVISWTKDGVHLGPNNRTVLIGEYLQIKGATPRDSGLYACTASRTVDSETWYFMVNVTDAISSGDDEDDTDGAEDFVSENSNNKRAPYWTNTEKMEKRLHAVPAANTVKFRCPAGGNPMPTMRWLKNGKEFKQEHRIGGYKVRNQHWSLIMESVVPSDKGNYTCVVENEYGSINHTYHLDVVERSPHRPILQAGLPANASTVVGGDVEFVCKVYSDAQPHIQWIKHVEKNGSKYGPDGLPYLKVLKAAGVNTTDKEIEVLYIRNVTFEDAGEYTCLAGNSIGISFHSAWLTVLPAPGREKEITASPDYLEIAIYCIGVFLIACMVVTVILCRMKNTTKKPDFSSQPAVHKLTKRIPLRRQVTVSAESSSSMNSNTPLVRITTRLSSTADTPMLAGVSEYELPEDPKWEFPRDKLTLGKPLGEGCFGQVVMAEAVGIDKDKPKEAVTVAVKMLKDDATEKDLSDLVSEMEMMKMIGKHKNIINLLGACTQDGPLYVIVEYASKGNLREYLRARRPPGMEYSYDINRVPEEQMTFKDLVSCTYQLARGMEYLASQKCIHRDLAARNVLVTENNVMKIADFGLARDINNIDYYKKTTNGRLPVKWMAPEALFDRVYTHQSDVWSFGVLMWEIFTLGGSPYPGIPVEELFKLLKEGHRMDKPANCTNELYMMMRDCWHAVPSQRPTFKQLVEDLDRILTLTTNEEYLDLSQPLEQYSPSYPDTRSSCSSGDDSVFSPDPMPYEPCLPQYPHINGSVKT

SMILES: COc1cc(OC)c(Cl)c(-c2ccc3c(/C=C/c4ccc(N(C)C(=O)CN5CCN(C)CC5)cc4)n[nH]c3c2)c1Cl [YTH‐60, (E)‐N‐(4‐(2‐(6‐(2,6‐dichloro‐3,5‐dimethoxyphenyl)‐1H‐indazol‐3‐yl)vinyl)phenyl)‐N‐methyl‐2‐(4‐methylpiperazin‐1‐yl)acetamide]
- therapeutic effect on BLM‐induced lung fibrosis (in words) [1]: good therapeutic effect
- viability of A549 cells (in words) [2]: suppressed the viability of A549 cells
- IC50 [3]: 7 nM
- IC50 [4]: 123 nM
- IC50 [5]: 64 nM
- kinase inhibition (in words) [6]: relatively weak kinase inhibition
- IC50 ([6]; double testing): 921 nM
- IC50 [7]: 297 nM
- IC50 [8]: 61 nM
- kinase inhibition (in words) [9]: relatively weak kinase inhibition
- IC50 ([9]; double testing): > 3000 nM
- IC50 [10]: 633 nM
- IC50 [11]: 27 nM
- IC50 [12]: 4 nM
- phosphorylation of FGFR1 (in words) [13]: inhibited the phosphorylation of FGFR1
